# Laboratory results reported in US9068971B2, “Methods for treating and/or limiting development of diabetes” (BioCrine AB, priority 2012, dated 2015).
# Entries after “also recorded” stand apart in the source; their conditions may differ.
# What was measured:
# SRBI [1] = details: cited from earlier work
# SRBI [2] = biological target: T1, SRBI (Homo sapiens, UniProt Q8WTV0); details: cited from earlier work
# T1 sequence (Q8WTV0 1-509 isoform Q8WTV0-2): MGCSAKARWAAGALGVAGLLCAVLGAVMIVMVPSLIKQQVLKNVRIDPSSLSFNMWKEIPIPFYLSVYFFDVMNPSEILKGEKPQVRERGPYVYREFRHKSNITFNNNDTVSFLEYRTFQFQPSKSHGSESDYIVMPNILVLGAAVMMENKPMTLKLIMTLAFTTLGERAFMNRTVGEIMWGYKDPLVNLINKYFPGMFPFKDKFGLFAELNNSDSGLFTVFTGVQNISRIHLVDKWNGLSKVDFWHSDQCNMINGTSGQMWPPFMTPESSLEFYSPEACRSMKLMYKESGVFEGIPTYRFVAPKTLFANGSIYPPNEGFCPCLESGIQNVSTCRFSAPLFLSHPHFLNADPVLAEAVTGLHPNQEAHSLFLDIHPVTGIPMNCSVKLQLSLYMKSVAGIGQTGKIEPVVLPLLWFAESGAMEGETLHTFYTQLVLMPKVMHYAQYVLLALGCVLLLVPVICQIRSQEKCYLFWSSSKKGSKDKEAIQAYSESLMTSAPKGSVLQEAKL
# CaV1.3 = experiment: Immunoblot of CaV1.3 subunits in RINm5F cell homogenates; assay type: cell-based, rat; details: overnight ApoCIII
# Description: (§1) Islets of Langerhans were isolated from adult male and female mice and dispersed into single β cells. RINm5F cells at about 70% confluency were trypsinized. The resultant suspension of cells was seeded into Petri dishes or 12-well plates. The cells were cultivated in RPMI 1640 medium supplemented with 10% fetal bovine serum, 2 mM L-glutamine, and 100 U/100 μg/ml penicillin/streptomycin (Invitrogen, Carlsbad, Calif.) and maintained at 37° C. in a humidified 5% CO2 incubator. They were grown overnight and then subjected to siRNA transfection. […]
# (§2) RINm5F cells following different treatments were lysed in a lysis buffer (pH 7.5) consisting of 50 mM HEPES, 150 mM NaCl, 1 mM EGTA, 1 mM EDTA, 10% glycerol, 1% triton X-100, 1 mM PMSF and a protease inhibitor cocktail (Roche Diagnostics, Mannheim, Germany). […] The protein concentration of the resulting samples was determined with Bio-Rad protein assay reagent (Bio-Rad, Hercules, Calif.). […]
# (§3) All data are presented as mean±SEM. Statistical significance was determined by one-way ANOVA, followed by least significant difference (LSD) test. […]
# CaV1 channels [3] = experiment: Cell-attached single channel patch-clamp of unitary CaV1 channel currents in mouse islet β cells; assay type: cell-based; details: ApoCIII 20 μg/ml overnight versus control vehicle
# Description: (§4) Islets of Langerhans were isolated from adult male and female mice and dispersed into single β cells. RINm5F cells at about 70% confluency were trypsinized. The resultant suspension of cells was seeded into Petri dishes or 12-well plates. The cells were cultivated in RPMI 1640 medium supplemented with 10% fetal bovine serum, 2 mM L-glutamine, and 100 U/100 μg/ml penicillin/streptomycin (Invitrogen, Carlsbad, Calif.) and maintained at 37° C. in a humidified 5% CO2 incubator. They were grown overnight and then subjected to siRNA transfection. For patch-clamp analysis, cells underwent overnight treatment with ApoCIII, the PKA inhibitor H-89 (Calbiochem, La Jolla, Calif.), the PKC inhibitor calphostin C (Calbiochem), the Src kinase inhibitor PP2 (Calbiochem) and the CaV1 channel blocker nimodipine (Calbiochem) in RPMI medium at final concentrations of 20 μg/ml, 0.5 μM, 0.1 μM, 0.1 μM and 5 μM, respectively. ApoCIII was dissolved in 0.1% triflouroacetic acid (TFA) to make a stock solution of 1 mg/ml, whereas H-89, calphostin C, PP2 and nimodipine were dissolved in dimethyl sulfoxide (DMSO) to form stock solutions of 5 mM, 1 mM, 1 mM and 10 mM, respectively. 0.002% TFA and/or 0.03% DMSO were used as vehicle controls.
# (§5) Mouse islet cells and RINm5F cells following different treatments were subjected to single channel and whole-cell patch-clamp measurements. Cell-attached and perforated whole-cell patch-clamp configurations were employed. Electrodes were made from borosilicate glass capillaries, fire-polished and coated with Sylgard close to their tips. Some of them were filled with a solution containing (in mM) 110 BaCl2, 10 TEA-Cl, and 5 HEPES (pH 7.4 with Ba(OH)2) for single channel measurements. Others were filled with a solution composed of (in mM) 76 Cs2SO4, 1 MgCl2, 10 KCl, 10 NaCl, and 5 HEPES (pH 7.35 with CsOH), as well as amphotericin B (0.24 mg/ml) for whole-cell current recordings. Electrode resistance ranged between 4 and 6 MΩ when they were filled with electrode solutions and immersed in bath solutions. The electrode offset potential was corrected in bath solutions prior to gigaseal formation. Single-channel recordings were performed with cells bathed in a depolarizing external recording solution, containing (in mM) 125 KCl, 30 KOH, 10 EGTA, 2 CaCl2, 1 MgCl2, and 5 HEPES-KOH (pH 7.15). This solution was used to bring the intracellular potential to 0 mV. […] Single channel and whole-cell currents were recorded with an Axopatch 200B amplifier (Molecular Devices, Foster City, Calif.) and an EPC-9 patch clamp amplifier (HEKA Elektronik, Lambrecht/Pfalz, Germany), respectively, at room temperature (about 22° C.). […]
# as §3
# CaV1 channels [4] = experiment: Cell-attached single channel patch-clamp of unitary CaV1 channel currents in RINm5F cells; assay type: cell-based, rat; details: ApoCIII 20 μg/ml overnight versus vehicle solution
# Description: as §4, §5, §3
# β cell CaV channels [5] = experiment: Perforated whole-cell patch-clamp of Ca2+ currents in RINm5F cells; assay type: cell-based, rat; details: for effect on ApoCIII-induced hyperactivation of β cell CaV channels (enhancement of whole-cell Ca2+ currents): ApoCIII 20 μg/ml overnight with inhibitor cotreatment or after siRNA pretransfection; for whole-cell Ca2+ current density under basal conditions, inhibitor(s) versus vehicle: in the absence of ApoCIII; for whole-cell Ca2+ current density, ApoCIII alone compared with ApoCIII plus inhibitor(s): ApoCIII 20 μg/ml
# Description: as §4
# Two pairs of 21-mer siRNA duplexes targeting the rat β1 integrin (β1 integrin siRNA #1, ID127971 and (31 integrin siRNA #2, ID127972) and SRBI (ID128929) were designed and chemically synthesized by Applied Biosystems/Ambion (Austin, Tex.). Their sequences were subjected to BLAST search to ensure their specificity. Silencer® Select Negative Control siRNA (4390843), not targeting any gene product, and Silencer® Select GAPDH Positive Control siRNA (4390849), efficiently silencing GAPDH in human, mouse, and rat cells, were purchased from Applied Biosystems/Ambion (Austin, Tex.). RINm5F cells were reversely transfected with Lipofectamine™ RNAiMAX. Briefly, negative control siRNA, β1 integrin siRNA #1, β1 integrin siRNA #2 or SRBI siRNA was mixed with Lipofectamine™ RNAiMAX followed by 20-min incubation at room temperature. Subsequently, cells were added to the siRNA/Lipofectamine™ RNAiMAX mixtures followed by gentle agitation and kept at 37° C. in a humidified 5% CO2 incubator. After 72 h, the transfected cells were grown to about 70% confluency and subjected to immunoblot assay or different treatments.
# Mouse islet cells and RINm5F cells following different treatments were subjected to single channel and whole-cell patch-clamp measurements. Cell-attached and perforated whole-cell patch-clamp configurations were employed. Electrodes were made from borosilicate glass capillaries, fire-polished and coated with Sylgard close to their tips. Some of them were filled with a solution containing (in mM) 110 BaCl2, 10 TEA-Cl, and 5 HEPES (pH 7.4 with Ba(OH)2) for single channel measurements. Others were filled with a solution composed of (in mM) 76 Cs2SO4, 1 MgCl2, 10 KCl, 10 NaCl, and 5 HEPES (pH 7.35 with CsOH), as well as amphotericin B (0.24 mg/ml) for whole-cell current recordings. Electrode resistance ranged between 4 and 6 MΩ when they were filled with electrode solutions and immersed in bath solutions. The electrode offset potential was corrected in bath solutions prior to gigaseal formation. Single-channel recordings were performed with cells bathed in a depolarizing external recording solution, containing (in mM) 125 KCl, 30 KOH, 10 EGTA, 2 CaCl2, 1 MgCl2, and 5 HEPES-KOH (pH 7.15). This solution was used to bring the intracellular potential to 0 mV. For perforated whole-cell current measurements, the cells were bathed in a solution containing (in mM) 138 NaCl, 5.6 KCl, 1.2 MgCl2, 10 CaCl2, 5 HEPES (pH 7.4). Single channel and whole-cell currents were recorded with an Axopatch 200B amplifier (Molecular Devices, Foster City, Calif.) and an EPC-9 patch clamp amplifier (HEKA Elektronik, Lambrecht/Pfalz, Germany), respectively, at room temperature (about 22° C.). […]
# CaV1.2 = experiment: Immunoblot of CaV1.2 subunits in RINm5F cell homogenates; assay type: cell-based, rat; details: overnight ApoCIII
# Description: as §1, §2, §3
# β cell CaV channels [6] = details: mouse islet β cell; previous work; cited from earlier work
# [7] = overnight, H-89 0.5 μM, calphostin C 0.1 μM, PP2 0.1 μM
compound,measurement,setting,value
interferon alpha,SRBI expression,SRBI [1],inhibit
"CC(C)(C)OC(=O)N1CCN(c2ccc(NC(=O)c3cc([N+](=O)[O-])ccc3Cl)cc2)CC1 [R-138329, N-[4-(4-tert-Butoxycarbonylpiperazin-1-yl)phenyl]-(2-chloro-5-nitrophenyl)carboxamide]",SRBI receptor activity,SRBI [2],block
"ApoCIII: protein comprising the amino acid sequence shown in SEQ ID NO:2 (Human), SEQ ID NO:4 (Rat) or SEQ ID NO:6 (Macaque)","relative abundance of CaV1.3 subunits, ApoCIII versus vehicle incubation",CaV1.3,no significant difference
same,mean closed time of unitary CaV1 channels,CaV1 channels [3],significantly shorter
same,mean open time of unitary CaV1 channels,CaV1 channels [3],significantly greater
same,open probability of unitary CaV1 channels,CaV1 channels [3],significantly greater
same,average number of unitary CaV1 channels,CaV1 channels [3]; plasma membrane patches,significantly greater
same,channel number of CaV1 channels,CaV1 channels [4],significantly increased
same,mean closed time of CaV1 channels,CaV1 channels [4],shortened
same,mean open time of CaV1 channels,CaV1 channels [4],prolonged
same,open probability of CaV1 channels,CaV1 channels [4],elevated
same,"whole-cell Ca2+ current density, ApoCIII group versus control group",β cell CaV channels [5]; no voltage range printed (FIG. 4d),Significantly higher
same,"whole-cell Ca2+ current density, ApoCIII-treated versus vehicle-treated control cells",β cell CaV channels [5]; voltage range 10-50 mV,significantly higher; also recorded: increased significantly; also recorded: significantly elevated; also recorded: significantly increased
same,"whole-cell Ca2+ current density, ApoCIII group versus control group",β cell CaV channels [5]; voltage range from 10 to 30 mV,significantly higher
same,"relative abundance of CaV1.2 subunits, ApoCIII versus vehicle incubation",CaV1.2,no significant difference
same,whole-cell Ca2+ currents after ApoCIII incubation,β cell CaV channels [6],significantly enhances
CC(C)(C)n1nc(-c2ccc(Cl)cc2)c2c(N)ncnc21 [PP2],effect on ApoCIII-induced hyperactivation of β cell CaV channels (enhancement of whole-cell Ca2+ currents),β cell CaV channels [5],tendency to decrease
same,"whole-cell Ca2+ current density under basal conditions, inhibitor(s) versus vehicle",β cell CaV channels [5],similar
same,"whole-cell Ca2+ currents, ApoCIII and PP2 cotreatment versus vehicle-treated control cells",β cell CaV channels [5]; voltage range 20-40 mV,significantly larger
O=S(=O)(NCCNC/C=C/c1ccc(Br)cc1)c1cccc2cnccc12 [H-89],effect on ApoCIII-induced hyperactivation of β cell CaV channels (enhancement of whole-cell Ca2+ currents),β cell CaV channels [5],marginally reduced
same,"whole-cell Ca2+ current density under basal conditions, inhibitor(s) versus vehicle",β cell CaV channels [5],did not significantly influence
same,"whole-cell Ca2+ current density, ApoCIII alone compared with ApoCIII plus inhibitor(s)",β cell CaV channels [5]; [7],did not significantly differ
same,"whole-cell Ca2+ current density, ApoCIII plus inhibitor(s) compared with control cells","β cell CaV channels [5]; overnight, nimodipine 5 μM (control = Nim alone), H-89 0.5 μM, calphostin C 0.1 μM, PP2 0.1 μM",did not significantly differ
calphostin C,effect on ApoCIII-induced hyperactivation of β cell CaV channels (enhancement of whole-cell Ca2+ currents),β cell CaV channels [5],does not affect
same,"whole-cell Ca2+ current density under basal conditions, inhibitor(s) versus vehicle",β cell CaV channels [5],similar
same,"whole-cell Ca2+ current density, ApoCIII alone compared with ApoCIII plus inhibitor(s)",β cell CaV channels [5]; [7],no difference
same,"whole-cell Ca2+ current density, ApoCIII/CalpC versus vehicle-treated control cells",β cell CaV channels [5]; voltage range from 20 to 50 mV,increased significantly
